Test results: patent US20060014733A1, “Histamine-3 agonists and antagonists” (Pfizer Inc, priority 2004, published 2006)

Biological target: T1, rat histamine H3 receptors (Rattus norvegicus, UniProt Q9QYN8)
T1 construct: Frozen rat frontal brain or frozen human post-mortem frontal brain is homogenized; from tissue; host or cells: rat frontal brain membranes
Test: Rat H3 binding (3H-N-methylhistamine displacement, rat frontal brain membranes)
Details: radioligand 1 nM 3H-N-methylhistamine, 1 hour incubation
Procedure: The in vitro affinity of the compounds in the present invention at the rat or human histamine H3 receptors can be determined according to the following procedure. Frozen rat frontal brain or frozen human post-mortem frontal brain is homogenized in 20 volumes of cold 50 mM Tris HCl containing 2 mM MgCl2 (pH to 7.4 at 4 degrees C.). The homogenate is then centrifuged at 45,000 G for 10 minutes. The supernatant is decanted and the membrane pellet re-suspended by Polytron in cold 50 mM Tris HCl containing 2 mM MgCl2 (pH to 7.4 at 4 degrees C.) and centrifuged again. The final pellet is re-suspended in 50 mM Tris HCl containing 2 mM MgCl2 (pH to 7.4 at 25 degrees C.) at a concentration of 12 mg/mL. Dilutions of compounds are made in 10% DMSO/50 mM Tris buffer (pH 7.4) (at 10×final concentration, so that the final DMSO concentration is 1%). Incubations are initiated by the addition of membranes (200 microliters) to 96 well V-bottom polypropylene plates containing 25 microliters of drug dilutions and 25 microliters of radioligand (1 nM final concentration ^3H-N-methylhistamine). After a 1 hour incubation, assay samples are rapidly filtered through Whatman GF/B filters and rinsed with ice-cold 50 mM Tris buffer (pH 7.4) using a Skatron cell harvester. Radioactivity is quantified using a BetaPlate scintillation counter.

T1 sequence (Q9QYN8 whole entry): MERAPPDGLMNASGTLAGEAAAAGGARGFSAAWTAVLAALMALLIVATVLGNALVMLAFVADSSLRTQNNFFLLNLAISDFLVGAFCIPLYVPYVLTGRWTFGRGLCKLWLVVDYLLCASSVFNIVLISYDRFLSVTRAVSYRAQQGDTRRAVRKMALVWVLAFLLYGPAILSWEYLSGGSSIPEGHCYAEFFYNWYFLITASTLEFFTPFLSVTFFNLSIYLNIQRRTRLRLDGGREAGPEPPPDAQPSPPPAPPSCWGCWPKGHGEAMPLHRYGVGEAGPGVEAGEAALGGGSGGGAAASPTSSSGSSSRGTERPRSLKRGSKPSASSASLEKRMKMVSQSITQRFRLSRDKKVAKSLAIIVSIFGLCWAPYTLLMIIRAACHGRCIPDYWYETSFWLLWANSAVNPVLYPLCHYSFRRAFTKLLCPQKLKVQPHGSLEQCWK

| Ki [µM] | Structure (SMILES) |
| --- | --- |
| 0.055 | CN(C)[C@H]1CCN(Cc2ccc(-c3ccc(S(C)(=O)=O)cc3)cc2)C1 [Example 42, (S)-[1-(4′-Methanesulfonyl-biphenyl-4-ylmethyl)-pyrrolidin-3-yl]-dimethylamine] |
| 0.072 | CN(C)[C@@H]1CCN(Cc2ccc(-c3ccc(S(C)(=O)=O)cc3)cc2)C1 [Example 43, (R)-[1-(4′-Methanesulfonyl-biphenyl-4-ylmethyl)-pyrrolidin-3-yl]-dimethylamine] |
| 0.139 | CC(=O)Nc1cccc(-c2ccc(CN3CC[C@H](N(C)C)C3)cc2)c1 [Example 44, (S)-N-[4′-(3-Dimethylamino-pyrrolidin-1-ylmethyl)-biphenyl-3-yl]-acetamide] |
| 0.075 | CC(=O)Nc1cccc(-c2ccc(CN3CC[C@@H](N(C)C)C3)cc2)c1 [Example 45, (R)-N-[4′-(3-Dimethylamino-pyrrolidin-1-ylmethyl)-biphenyl-3-yl]-acetamide] |
| 0.136 | CN(C)[C@@H]1CCN(Cc2ccc(C3CCNCC3)cc2)C1 [Example 46, (R)-[1-(4-piperidin-4-ylbenzyl)-pyrrolidin-3-yl]-dimethylamine] |
| 0.033 | CN(C)[C@H]1CCN(Cc2ccc(C3CCNCC3)cc2)C1 [Example 47] |
